Legend:
TAZ = TAZ protein abundance, immunoblot of 1833 cells; type: cell-based, human; details: 20 μM, 24 hours
Description: Control 1833 cells or 1833 cells expressing murine Ab12-E505K mutant protein were plated (3×10^5 cells per group) in six well plates. Cells were then treated with vehicle (DMSO) or GNF5 (20 μM) for 24 hours and immunoblotted with the indicated antibodies. n=3 blots.
(§1) Cells were lysed in radio-immunoprecipitation assay buffer with protease and phosphatase inhibitors. Cell debris was removed by microcentrifugation, and protein was quantified. Alternatively, equal cell numbers were plated onto six-well plates, and 24 hours later, conditioned medium was harvested and concentrated using Amicon Ultra Centrifugal Filters (Millipore). Equal amounts of protein or conditioned medium were separated by SDS-polyacrylamide gel electrophoresis and transferred onto nitrocellulose membranes and probed with the indicated antibodies.

1833 breast cancer cells = assay: Breast cancer bone metastasis after intra-cardiac injection of 1833 cells in mice; type: in vivo
Excerpt: (A) Experimental design. (B) Survival of mice after intra-cardiac injection of 1833 (1×10^5) breast cancer cells and treatment with either dimethyl sulfoxide (DMSO) control or the allosteric ABL inhibitor GNF5. n=10 mice per group. (C) Bioluminescent images of representative mice at day 22 after inoculation. (D) Quantification of bone metastases. n=10 mice per group. (E and F) Representative H&E staining (E) and quantification (F) of H&E stained tumor area of bone lesions. Arrows indicate tumor. n=3 mice per group. Scale bar, 200 μm. (G and H) Representative x-ray and μCT reconstruction (G) of mouse tibias and quantification (H) of bone volume/total volume. n=3 mice per group.
Procedures involving mice were approved and performed following the guidelines of the Institutional Animal Care and Use Committee (IACUC) of Duke University Division of Laboratory Animal Resources (DLAR). Age-matched female athymic NCr nu/nu mice (5 to 6 weeks old) were used for xenograft experiments. For intra-cardiac injections, cells were harvested from sub-confluent culture plates, washed with phosphate-buffered saline (PBS), and resuspended at 106/ml (1833) or 5×10^6/ml (SCP28) in PBS; 0.1 ml of the suspended cells was injected into the left cardiac ventricle using 30-gauge needles. Mice were anesthetized with isoflurane before injection and imaged by bioluminescence imaging. For intra-tibial injections, mice were anesthetized using a mixture of ketamine (100 mg/kg) and xylazine (10 mg/kg). The injection site was cleaned with a 70% alcohol wipe. Single-cell suspensions (1×10^5 cells) in a final volume of […] were injected into the upper half of the tibia medullary cavity, as felt by a lack of resistance when pushing cells into the cavity. Bioluminescence imaging was used to confirm successful cancer cell inoculation and progression of metastatic bone lesions. The allosteric inhibitor GNF5 was synthesized by the Duke University Small Molecule Synthesis Facility. For drug treatment, the mice were dosed daily with GNF5 in DMSO/peanut oil (1:9) at 50 mg/kg by intraperitoneal injection.
Hind limb bones were excised, fixed in 10% neutral-buffered formalin, and imaged using a μCT scanner (SkyScan 1176, Bruker Corp.) at […] and 180° scanning with a rotation step of 0.7° per image, 242-ms exposure time, 55-kV photon energy, and […]. The images were reconstructed using NReconServer, and bone volume was analyzed by CT analysis software (CTAn, Bruker Corp.).
Hind limb bones were excised, fixed in 10% neutral-buffered formalin, decalcified, and embedded in paraffin for H&E staining (Zhang et al., Cancer Cell, 2009).

RAF-ERK pathway = assay: ERK activation, Western blot of 1833 breast cancer cell lysates; type: cell-based, human; details: 10 μM, 3 hours, 1833 cells
Description: as §1

FH-deficient HLRCC = details: cited from earlier work
[1] = 50 mg/kg daily i.p. starting day 8

| Structure (SMILES) | TAZ protein abundance (TAZ; 1833 cells expressing murine ABL2-E505K (GNF5-resistant mutant)) | TAZ protein abundance (TAZ; control 1833 cells) | bone destruction (x-ray, μCT) (1833 breast cancer cells; [1]) | bone tumor burden by histological analyses (H&E) (1833 breast cancer cells; [1]) | bone metastasis burden by bioluminescence imaging (1833 breast cancer cells; 50 mg/kg daily i.p. starting day 8, day 22 imaging) | ratio of bone volume to total volume (μCT) (1833 breast cancer cells; 50 mg/kg daily i.p. starting day 8, mouse tibias) | survival of tumor-bearing mice (1833 breast cancer cells; 50 mg/kg daily i.p. starting day 8 after intra-cardiac injection) | ERK activation (phospho-Erk) (RAF-ERK pathway) | cytotoxicity to FH-deficient HLRCC (FH-deficient HLRCC) |
| --- | --- | --- | --- | --- | --- | --- | --- | --- | --- |
| O=C(NCCO)c1cccc(-c2cc(Nc3ccc(OC(F)(F)F)cc3)ncn2)c1 [GNF5] | not decreased | decreased | decreased | decrease | decrease | increased | significant increase | does not activate |  |
| Cc1ccc(NC(=O)c2ccc(CN3CCN(C)CC3)cc2)cc1Nc1nccc(-c2cccnc2)n1 [imatinib] |  |  |  |  |  |  |  | promotes ERK activation | cytotoxic |
| COc1cc2c(Nc3ccc(Br)cc3F)ncnc2cc1OCC1CCN(C)CC1 [vandetanib] |  |  |  |  |  |  |  |  | cytotoxic |

From patent publication US9931342B2, “Compositions and methods for the treatment of cancer” (Duke University, priority 2016, dated 2018)
